From EP1688137A1, “SPM 927 for add-on therapy of schizophrenia” (SCHWARZ PHARMA AG, priority 2005, dated 2006) come the findings set out here.

This assay relates to C57BL/6J mice. Put plainly: prepulse inhibition (PPI) of the acoustic startle reflex, animal model for schizophrenia. The class given is in vivo. The following applies: 30 min prior to testing, n=12. The protocol: Some anti-epileptic drugs have proven pre-clinical and/or clinical efficacy as add-on therapy for schizophrenia. SPM 927 was tested in a simple animal model with predictive validity for schizophrenia (i.e. prepulse inhibition (PPI) of the acoustic startle reflex). SPM 927 was tested alone and in combination with the atypical antipsychotic drug clozapine.
The acoustic startle is an unconditioned reflex response to an external auditory stimulation. PPI refers to the reduction in the startle response caused by the presentation of a low-intensity auditory stimulus prior to the startle stimulus. The PPI paradigm is the choice for the study of schizophrenia and antipsychotic action due to the similarities between the results from human and rodent studies. Antipsychotic drugs, such as clozapine, result in a dose-dependent increase in PPI in mice. Thus, an increase of PPI in normal mice may be indicative of antipsychotic efficacy.
C57BL/6J mice obtained from the Jackson Laboratory, Bar Harbor, Maine were received at the age of 6 weeks and were assigned unique identification numbers (tail marked). Animals were housed 4 per cage in polycarbonate cages with filter tops and acclimated for 7 days. All animals were examined, handled, and weighed prior to initiation of the study to assure adequate health and suitability and to minimize non-specific stress associated with manipulation.
During the course of the study, 12/12 light/dark cycles and a room temperature of 20 to 23°C were maintained with a relative humidity maintained around 50%. Chow and water were provided ad libitum for the duration of the study. Each mouse was randomly assigned across the treatment groups and balanced by cage numbers. The test was performed during the animal's light cycle phase. Twelve animals were used in each treatment group.
SPM 927 was dissolved in Saline (0.9% NaCl in sterile H2O). Clozapine was dissolved in 1 % Tween 80 in sterile H2O at a final pH of 6.0. All compounds were administered intraperitoneal (ip) (volume injection: 10 ml/kg). SPM 927 was administered at doses of 1, 10 and 30 mg/kg and Clozapine at a dose of 3 mg/kg. Doses are expressed as mg of salt. Control mice were administered saline (vehicle 1, VEH 1) or 1% Tween 80 (vehicle 2, VEH 2) at a pH of 6.0. The drug treatments were balanced across days and the animals only used once. All tests were conducted blind. All compounds were administered 30 mins prior to testing.
Animals were placed in the PPI chambers (Med Associates) for a 5 min session of white noise (70 dB) habituation. After the acclimation period the test session was automatically started. The session started with an habituation block of 6 presentations of the startle stimulus alone, followed by 10 PPI blocks of 6 different types of trials. Trial types are: null (no stimuli), startle (120 dB), startle plus prepulse (4, 8 and 12 dB over background noise i.e. 74, 78 or 82 dB) and prepulse alone (82 dB). Trial types were presented at random within each block. Each trial started with a 50 ms null period during which baseline movements are recorded. There was a subsequent 20 ms period during which prepulse stimuli were presented and responses to the prepulse measured. After further 100 ms the startle stimuli were presented for 40 ms and responses recorded for 100 ms from startle onset. Responses were sampled every ms. The inter-trial interval was variable with an average of 15 s (range from 10 to 20 s). In startle alone trials the basic auditory startle is measured and in prepulse plus startle trials the amount of inhibition of the normal startle is determined and expressed as a percentage of the basic startle response (from startle alone trials), excluding the startle response of the first habituation block. Eight animals were tested at one time.
Twelve animals were tested in each group. […]

As to `COC[C@@H](NC(C)=O)C(=O)NCc1ccccc1` [SPM 927, (R)-2-acetamide-N-benzyl-3-methoxypropionamide], the “Mean PPI” value stood at 29±3 (SPM 927 3 mg/kg ip / VEH 2 (alone)); 43±2 (SPM 927 3 mg/kg ip in combination with clozapine 3 mg/kg ip); 34±3 (SPM 927 10 mg/kg ip / VEH 2 (alone)); 45±2 (SPM 927 10 mg/kg ip in combination with clozapine 3 mg/kg ip); 27±2 (SPM 927 30 mg/kg ip / VEH 2 (alone)); 57±5 (SPM 927 30 mg/kg ip in combination with clozapine 3 mg/kg ip).
Take `CN1CCN(C2=Nc3cc(Cl)ccc3Nc3ccccc32)CC1` [CLOZ, clozapine, reference compound]: the “Mean PPI” value (VEH 1 / clozapine 3 mg/kg ip, PPI expressed as percentage of basic startle response) was 45±2.
